The text below walks through data of patent US9745267B2, “Compounds as modulators of RORC” (Boehringer Ingelheim International GmbH, priority 2013, dated 2017).

For the test, the target named is T1, RORγt (hRORC LBD) (Homo sapiens, UniProt P51449).
T1 construct: expressed in transfected cells; host or cells: HEK 293 (transient cotransfection with pGL4.3 luc2P/GAL4UAS/Hygro reporter)
T1 sequence (P51449 269-508 limits assumed): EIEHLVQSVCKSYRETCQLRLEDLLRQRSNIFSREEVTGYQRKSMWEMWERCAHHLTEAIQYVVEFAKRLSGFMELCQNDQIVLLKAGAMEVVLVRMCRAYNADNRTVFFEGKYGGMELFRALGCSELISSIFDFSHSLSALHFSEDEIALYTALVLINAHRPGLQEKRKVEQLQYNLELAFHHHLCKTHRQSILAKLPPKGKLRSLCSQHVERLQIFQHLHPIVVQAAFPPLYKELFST
In words: RGA Assay: nuclear receptor transactivation assay, RORγt transactivation of a luciferase reporter. Format: cell-based. As to conditions: transiently transfected HEK 293 cells, Gal4DBD hRORC LBD, 20-24 hours incubation. As for the experimental part:
A nuclear receptor transactivation assay was performed to quantitate the ability of test compounds to inhibit RORγt transactivation of a luciferase reporter. A similar assay is described in: Khan et al., Bioorganic & Medicinal Chemistry Letters 23 (2013), 532-536. The system uses transiently transfected HEK 293 cells cotransfected with two plasmids (pGL4.3, luc2P/GAL4UAS/Hygro, and pBIND, Gal4DBD hRORC LBD1-3). The positive control is co-transiently transfected with both plasmids, and the negative control contains the pGL4.3 promoter sequence. Assays were assembled in 384 well plates where transiently transfected cells and test compound at varying concentrations were incubated for 20-24 hours. The next day, assays plates are taken out and equilibrated at RT for 20-30 minutes. Bright-Glo™ Luciferase Assay System is used to detect Luciferase production. After addition of Bright GLO detection reagent, the plates were incubated at RT for 20 minutes. The plates were read on an Envision plate reader to measure luminescence signal. The RLU signal is converted to POC relative to control and blank wells.
Compound Dilution Buffer:
Bright Glo Luciferase Assay System: Promega #E2620
Thaw lysis buffer provided in kit, add 100 mL lysis buffer to substrate powder.

In general, IC50 refers to the point on the concentration scale where inhibition reaches its midpoint. A high value points to lower potency. In turn, `COc1ccc(-c2ccc3c(c2)C2(CCCC2)CN3C(=O)NCc2ccc(C#N)cc2)c(C(F)(F)F)c1` [Example 82] returned an IC50 of 1100 nM. The compound `CCS(=O)(=O)c1ccc(CNC(=O)N2CC3(CCC3)c3cc(-c4c(OC)ncnc4C4CC4)ccc32)nc1` [Example 129] had an IC50 of 370 nM.

As for `CNS(=O)(=O)c1ccc(CNC(=O)N2CC3(CCCC3)c3cc(Oc4cc(C(F)(F)F)ccc4C)ccc32)cc1` [Example 60], the midpoint of inhibition, the IC50, lay at 250 nM.

`CNS(=O)(=O)c1ccc(CNC(=O)N2CC3(CCCC3)c3cc(-c4cccc(N5CCCC5)c4)ccc32)cc1` [Example 5] came in with an IC50 of 1600 nM. The compound `COCCOc1cc(S(C)(=O)=O)ccc1CNC(=O)N1CC2(CCCC2)c2cc(-c3ccc(OC)cc3C(F)(F)F)ccc21` [Example 101] had an IC50 of 1100 nM.

`CNS(=O)(=O)c1ccc(CNC(=O)N2CC3(CCCC3)c3cc(-c4cc(F)ccc4CC#N)ccc32)cc1` [Example 46] returned an IC50 of 1300 nM. The same measure for `CNS(=O)(=O)c1ccc(CNC(=O)N2CC3(CCCC3)c3cc(-c4c(C)cccc4C#N)ccc32)cc1` [Example 91]: 870 nM. As for `CNS(=O)(=O)c1ccc(CNC(=O)N2CC3(CCCC3)c3cc(-c4c(F)cccc4C(F)(F)F)ccc32)cc1` [Example 75], the figure is 140 nM; as for `CCS(=O)(=O)c1ccc(CNC(=O)N2CC3(CCCC3)c3cc(-c4ccc(C)cc4C#N)ccc32)cc1` [Example 70], 1300 nM; as for `CNS(=O)(=O)c1ccc(CNC(=O)N2CC3(CCCC3)c3cc(-c4cc(O)ccc4C)ccc32)cc1` [Example 92], 1100 nM. The same measure for `CNS(=O)(=O)c1ccc(CNC(=O)N2CC3(CCCC3)c3cc(-c4ccccc4C)ccc32)cc1` [Example 2]: 920 nM; for `CCS(=O)(=O)c1ccc(CNC(=O)N2CC3(CCCC3)c3cc(-c4cnc(N)nc4C(F)(F)F)ccc32)cc1` [Example 111]: 1700 nM. The compound `CNS(=O)(=O)c1ccc(CNC(=O)N2CC3(CCCC3)c3cc(-c4cc(OC)c(OC)cc4C(=O)OC)ccc32)cc1` [Example 26] came in with an IC50 of 1400 nM. For `CNS(=O)(=O)c1ccc(CNC(=O)N2CC3(CCCC3)c3cc(C4=C(C)CCCC4)ccc32)cc1` [Example 95], the IC50 worked out at 340 nM. The same measure for `CNS(=O)(=O)c1ccc(CNC(=O)N2CC(C)(C)c3cc(-c4ccc(OC)cc4C(F)(F)F)ccc32)cc1` [Example 58]: 880 nM; for `CNS(=O)(=O)c1ccc(CNC(=O)N2CC3(CCCC3)c3cc(-c4c(F)cccc4C#N)ccc32)cc1` [Example 34]: 790 nM; for `CNS(=O)(=O)c1ccc(CNC(=O)N2CC3(CCCC3)c3cc(-c4cc(C(C)=O)ccc4C)ccc32)cc1` [Example 35]: 890 nM. Take `CCS(=O)(=O)c1ccc(CNC(=O)N2CC(C)(C3CC3)c3cc(-c4c(OC)ncnc4C4CC4)ccc32)cc1` (centres unmarked) [Example 120]: the IC50 was determined as 280 nM. The same measure for `CCS(=O)(=O)c1ccc(CNC(=O)N2CC3(CCCC3)c3cc(-c4ccc(CO)cc4C)ccc32)cc1` [Example 69]: 1100 nM. The same measure for `CNS(=O)(=O)c1ccc(CNC(=O)N2CC3(CCCC3)c3cc(-c4ccc(O)cc4C#N)ccc32)cc1` [Example 88]: 910 nM; for `CNS(=O)(=O)c1ccc(CNC(=O)N2CC3(CCCC3)c3cc(Oc4cc(OC)ccc4C)ccc32)cc1` [Example 63]: 1400 nM; for `CNS(=O)(=O)c1ccc(CNC(=O)N2CC3(CCCC3)c3cc(-c4ccc(O)cc4C)ccc32)cc1` [Example 11]: 690 nM.

Regarding `COc1ccc(-c2ccc3c(c2)C2(CCCC2)CN3C(=O)NCc2ccc(C#N)c(C)c2)c(C(F)(F)F)c1` [Example 97], the IC50 worked out at 770 nM. On to `CCS(=O)(=O)c1ccc(CNC(=O)N2CC3(CCCC3)c3cc(-c4ccc(OC)cc4C(F)(F)F)ccc32)c(OC)c1` [Example 104], for which half-maximal inhibition (IC50) was put at 350 nM. The same measure for `CCS(=O)(=O)c1ccc(CNC(=O)N2C[C@@](C)(C3CC3)c3cc(-c4c(OC)ncnc4C4CC4)ccc32)cc1` [Example 126]: 400 nM. As for `CNS(=O)(=O)c1ccc(CNC(=O)N2CC3(CCCC3)c3cc(Oc4ccc(F)c(OC(F)(F)F)c4)ccc32)cc1` [Example 62], the figure is 970 nM; as for `CCS(=O)(=O)c1ccc(CNC(=O)N2CC(C)(C3CCC3)c3cc(-c4c(OC)ncnc4C4CC4)ccc32)cc1` (centres unmarked) [Example 117], 480 nM. The same measure for `CCS(=O)(=O)c1ccc(CNC(=O)N2CC(C)(C3CCC3)c3cc(-c4cncnc4C(C)C)ccc32)cc1` (centres unmarked) [Example 116]: 1000 nM; for `CCS(=O)(=O)c1ccc(CNC(=O)N2CC3(CCCC3)c3cc(-c4ccc(F)cc4C)ccc32)cc1` [Example 28]: 1200 nM; for `CNS(=O)(=O)c1ccc(CNC(=O)N2CC3(CCCC3)c3cc(-c4ccc(F)cc4C(=O)OC)ccc32)cc1` [Example 85]: 1300 nM. `CNS(=O)(=O)c1ccc(CNC(=O)N2CC3(CCCC3)c3cc(-c4ccc(NC(C)=O)cc4C)ccc32)cc1` [Example 50] gave an IC50 of 1900 nM.

As for `COc1cc(C#N)ccc1CNC(=O)N1CC2(CCCC2)c2cc(-c3ccc(O)cc3C(F)(F)F)ccc21` [Example 102], the IC50 was 180 nM. The same measure for `CCS(=O)(=O)c1ccc(CNC(=O)N2CC3(CCCC3)c3cc(-c4ccccc4-c4cnco4)ccc32)cc1` [Example 78]: 790 nM; for `CNS(=O)(=O)c1ccc(CNC(=O)N2CC3(CCCC3)c3cc(-c4cc(CN)ccc4C)ccc32)cc1` [Example 98]: 1200 nM; for `CNS(=O)(=O)c1ccc(CNC(=O)N2CC3(CCCC3)c3cc(-c4cc5cnn(C)c5cc4C)ccc32)cc1` [Example 29]: 720 nM. As for `CNS(=O)(=O)c1ccc(CNC(=O)N2CC3(CCCC3)c3cc(-c4ccncc4C(F)(F)F)ccc32)cc1` [Example 36], the figure is 890 nM. As for `CNS(=O)(=O)c1ccc(CNC(=O)N2CC3(CCCC3)c3cc(-c4ccccc4-c4cnco4)ccc32)cc1` [Example 33], the figure is 750 nM; as for `CCS(=O)(=O)c1ccc(CNC(=O)N2CC3(CCCC3)c3cc(-c4c(OC)nc(N(C)C)nc4C4CC4)ccc32)cc1` [Example 130], 310 nM. As to `CCS(=O)(=O)c1ccc(CNC(=O)N2CC3(CCCC3)c3cc(-c4ccc(C#N)cc4C)ccc32)cc1` [Example 71], the IC50 turned out to be 740 nM. As for `Cc1cc(F)ccc1-c1ccc2c(c1)C1(CCCC1)CN2C(=O)NCc1ccc(S(C)(=O)=O)cc1` [Example 54], the figure is 1300 nM.

`CNS(=O)(=O)c1ccc(CNC(=O)N2CC3(CCCC3)c3cc(-c4cc(F)c(C#N)cc4C)ccc32)cc1` [Example 93]: inhibition was half-maximal at 1200 nM (IC50). The same measure for `CCS(=O)(=O)c1ccc(CNC(=O)N2CC3(CCCC3)c3cc(-c4c(OC)ncnc4OC)ccc32)cc1` [Example 121]: 600 nM. The same measure for `CCS(=O)(=O)c1ccc(CNC(=O)N2CC3(CCCC3)c3cc(-c4c(OC)nc(C)nc4C4CC4)ccc32)cc1` [Example 122]: 1100 nM; for `CNS(=O)(=O)c1ccc(CNC(=O)N2CC(C)(CC(C)C)c3cc(-c4ccc(F)cc4C)ccc32)cc1` (centres unmarked) [Example 59]: 1500 nM; for `CNS(=O)(=O)c1ccc(CNC(=O)N2CC3(CCCC3)c3cc(-c4cccc(F)c4CC#N)ccc32)cc1` [Example 43]: 1100 nM. The same measure for `CCc1ccccc1-c1ccc2c(c1)C1(CCCC1)CN2C(=O)NCc1ccc(S(=O)(=O)NC)cc1` [Example 9]: 610 nM; for `CNS(=O)(=O)c1ccc(CNC(=O)N2CC3(CCCC3)c3cc(-c4c(C)cc(CO)cc4C)ccc32)cc1` [Example 89]: 990 nM; for `CCOc1ccc(-c2ccc3c(c2)C2(CCCC2)CN3C(=O)NCc2ccc(S(=O)(=O)NC)cc2)c(C)c1` [Example 12]: 780 nM. Regarding `CNS(=O)(=O)c1ccc(CNC(=O)N2CC3(CCCC3)c3cc(-c4ccccc4C(F)F)ccc32)cc1` [Example 31], the IC50 amounted to 740 nM. The same measure for `CCC1(C)CN(C(=O)NCc2ccc(S(=O)(=O)NC)cc2)c2ccc(-c3ccc(OC)cc3C(F)(F)F)cc21` (centres unmarked) [Example 57]: 780 nM. The same measure for `CCOCc1ccccc1-c1ccc2c(c1)C1(CCCC1)CN2C(=O)NCc1ccc(S(=O)(=O)NC)cc1` [Example 21]: 1100 nM.

As to `CNS(=O)(=O)c1ccc(CNC(=O)N2CC3(CCCC3)c3cc(-c4cccc(F)c4C)ccc32)cc1` [Example 77], the IC50 turned out to be 760 nM. As for `CNS(=O)(=O)c1ccc(CNC(=O)N2CC3(CCCC3)c3cc(-c4ccc(C#N)cc4C)ccc32)cc1` [Example 15], the figure is 940 nM.

`CNS(=O)(=O)c1ccc(CNC(=O)N2CC3(CCCC3)c3cc(-c4ccc(O)cc4C(F)(F)F)ccc32)cc1` [Example 56] registered an IC50 of 400 nM. The same measure for `CCCC1(C)CN(C(=O)NCc2ccc(S(=O)(=O)NC)cc2)c2ccc(-c3ccc(F)cc3C)cc21` (centres unmarked) [Example 65]: 1500 nM; for `CNS(=O)(=O)c1ccc(CNC(=O)N2CC3(CCCC3)c3cc(-c4cccc(C#N)c4C)ccc32)cc1` [Example 38]: 970 nM.
